This note sets out measurements from patent US5260275A, “Hypoglycemics” (Amylin Pharmaceuticals, Inc., priority 1990, dated 1993).

In test [1] the test system is amylin inhibition of insulin-stimulated muscle glycogen synthesis. The test is described as follows: Antagonist assay in isolated rat soleus muscle (radiolabelled glucose into glycogen, Example 6). Format: cell-based. Conditions: 1000 μU/mL insulin. As to the method: An antagonist assay was performed in vitro using the isolated soleus muscle from rats. It measured the rate of incorporation of radiolabelled glucose into muscle glycogen as follows: […] There were therefore 9 treatment groups (conditions 1,2,3 and six subgroups of condition 4). The right and left soleus muscles of 4-hour fasted rats were removed immediately after decapitation of the animals, divided in half and temporarily placed in physiological saline. Muscles were assigned to different treatment groups so that the 4 muscle pieces from each animal were evenly distributed among the 9 flasks representing the different assay conditions. […] Pharmacologically active agents were added to the 10mL of medium to result in the above stated concentrations and mixtures. […] Frozen muscle specimens were digested in 1 mL 60% potassium hydroxide at 70° C. for 45 minutes. […] The supernatant was aspirated and the glycogen washed with ethanol, aspirated and dried under vacuum. The remaining glycogen was redissolved in water and scintillation fluid and counted for ^14 C. From a knowledge of the specific activity of ^14 C-glucose in the 5.5 mM glucose of the incubation medium, and the total ^14 C counts remaining in the glycogen extracted from each muscle, the net rate of glycogen synthesis over the final 60 minute incubation period was determined. This was normalized per mass of muscle and expressed as μmoles of glucosyl units incorporated into glycogen per hour per gram of muscle. The antagonist dose/response curve was fitted to a 4-parameter logistic model using a least-squares iterative routine (ALLFIT, v2.7, NIH, MD) to derive the EC50 for disinhibition.

Test [2] has as its system HIT T-15 cells. Briefly: Insulin release from HIT T-15 cells. It is filed as cell-based, hamster. How it is done:
(§1) HIT T-15 cells (HIT cells; American Type Tissue Collection, Rockville, MD; R. F. Santerre, et al. (1981) Proc. Nat. Acad. Sci. USA 78, 4339-4343.) were subcultured weekly in Ham's F-12 medium (Irvine Scientific, Santa Ana, Calif.) containing 10% horse serum (Gemini Bioproducts, Calabasas, Calif.), 2.5% fetal bovine serum (FBS; Gemini), 2 mM L-glutamine, and 10.0 mM glucose. Cells were maintained at 37° C. and 5% CO2 / 95% humidified air and medium was replaced every 2 to 3 days. All experiments were performed with cells from passages 66 to 71.
(§2) Amylin and insulin secretion were measured using reagents of analytical grade unless otherwise indicated. The secretion medium was a Krebs-Ringer buffer (KRB) containing 119 mM NaCl, 4.74 mM KCl, 2,54 mM CaCl2, 1.19 mM MgSO4, 1.19 mM KH2 PO4, 25 mM NaHCO3, 10 mM HEPES and 0.1% protease-free bovine serum albumin (Cohn fraction V; Sigma Chemical Co., St. Louis Mo.) at pH 7.4. Glibenclamide (Sigma) was initially dissolved in ethanol (50 mg/ml) then diluted to working concentrations in KRB. […] Tolbutamide (Sigma) was initially dissolved in dimethylsulfoxide (50 mg/ml). […] Metformin (Sigma) was diluted in KRB.
(§3) Five days before each secretion study cells were subcultured at 0.26×10^6 cells/0.8 ml medium/well in 24-well tissue culture plates (Corning Glass Works, Corning N.Y.). Medium was replaced on day 3. On day 5 cells were washed twice with 1.0 ml KRB then incubated in 1.0 ml KRB (30 minutes, 37° C.) in equilibrium with air. Cells were washed twice more prior to addition of 0.5 ml KRB containing the indicated concentrations of glucose, metformin, tolbutamide and glibenclamide. After a 60 minute incubation with test substance or substances, supernatants were centrifuged (5 minutes, 500×g, 5° C.; GPKR centrifuge, Beckman Instruments, Inc., Palo Alto, Calif.) to remove cell debris, then stored in polypropylene micro test tubes (Brinkman Instrument Co., Westbury, N.Y.) at -20° C. until analyzed by radioimmunoassay. Supernatants were analyzed for insulin and amylin content within one week of collection. Three wells per plate were randomly selected for cell quantitation. Cells were incubated with 75 μg trypsin and 30 μg EDTA in 150 μl normal saline (8 minutes, 37° C.), then counted on a Coulter Counter (Model Zf, Coulter Electronics, Hialeah, Fla.).
(§4) Immunoreactive insulin content in supernatants was measured using a commercial radioimmunoassay (IM.78; Amersham, Arlington Heights, Ill.). […] The radioimmunoassay for immunoreactive amylin was as follows. Assay diluent was phosphate-buffered saline (PBS; 137 mM NaCl, 2.68 mM KCl, 1.47 mM KH2 PO4, 6.65 mM Na2 HPO4) containing 0.1% Triton-X 100 (v/v), 0.01% NaN3 (w/v), and 0.1% gelatin (v/v; teleostean, 45% aqueous solution, Sigma) at pH 7.4. All incubations were performed at 4° C. ^125 I-[Tyr 37]-human synthetic amylin tracer was iodinated by the chloramine-T method and purified on a C18 Sep-Pak (Waters Associates, Milford, Mass.). Specific activity was approximately 500 μCi/μg.
Data in FIGS. 3 and 4 are shown as the mean±S.D. of 4 replicate samples. An unpaired Student's t-test was used to compare secretion in the absence and presence of hypoglycemic agent (Statview 512+ program; Brain Power, Inc., Calabasas, Calif.).
HIT T-15 cells (HIT cells; American Type Tissue Collection, Rockville, Md.) were subcultured weekly in Ham's F-12 medium (Irvine Scientific, Santa Ana, Calif.) containing 10% horse serum (Gemini Bioproducts, Calabasas, Calif.), 2.5% fetal bovine serum (FBS; Gemini), 2 mM L-glutamine, 10^5 IU penicillin G/1, 100 mg streptomycin/1 and 10.0 mM glucose. Cells were maintained at 37° C. and 5% C02/ 95% humidified air and medium was replaced every 2 to 3 days. All experiments were performed with cells from passages 62 to 71.

For test [3], the system named is HIT T-15 cells. The test is described as follows: Amylin release from HIT T-15 cells. It is filed as cell-based, hamster. The conditions noted are these: for Effect on basal and glucose-stimulated amylin secretion (in words): same concentrations that stimulate insulin secretion (tolbutamide 100 μM; glibenclamide 0.1 and 1.0 μM), 0 and 10 mM glucose. As to the method: as §1, §2, §3, §4
Standards and unknowns were run in triplicate or duplicate respectively. After an 18 hour incubation, 100 μl of tracer containing 20,000 dpm was added and samples were incubated an additional 18 hours. To ensure complete immunoprecipitation of amylin:antibody complexes, 100 μl of rabbit gamma globulin (0.35 mg/ml, Scantibodies Laboratory, Santee, Calif.) and 100 μl of goat anti-rabbit gamma globulin (0.50 mg/ml, purified grade; Scantibodies) were added. After a 15 minute incubation, 1.0 ml 2% polyethylene glycol (w/v. MW 8,000; Sigma) in assay buffer was added and samples were centrifuged (30 minutes, 1500×g, 5° C.). Samples were decanted and pellets were counted on a gamma counter (model 1277; LKB Wallac, Turku, Finland).
Data in FIGS. 3 and 4 are shown as the mean±S.D. of 4 replicate samples.

In test [4] the test system is isolated rat islets of Langerhans. The test is described as follows: Glucose-stimulated insulin secretion from isolated rat islets of Langerhans. Format: cell-based. Conditions: glucose 10 mmol/L. How it is done:
The following experiments illustrate the fact that subpeptides of amylin can act to reduce the amount of insulin produced by isolated islets of Langerhans in response to a standard glucose challenge. Similar results have been obtained using whole amylin. All experiments were performed by known methods used in experimental practice. See, e.g., Lacey P. E., and Kostianovsky M., Method for the Isolation of Intact Islets of Lanaerhans from the Rat Pancreas. Diabetes 1967; 16:35-39.
Briefly, rats were killed, and islets of Langerhans were isolated from their pancreases. Experiments were performed either with freshly isolated islets or after overnight incubation of islets (23 h) in standard culture medium and conditions at 37° C. Synthetic amylin peptide 27-37 or synthetic calcitonin gene related peptide (CGRP) was dissolved in a 1.0 mmol/L citric acid/sodium citrate buffer, pH 3.0, and the concentration of the amylin 27-37 was verified by quantitative amino acid analysis. See, e.g., Cooper G. J. S. et al., Proc Natl Acad Sci USA 1987; 84:8628-8632. […] Stimulation of islets was carried out at the standard stimulatory glucose concentration of 10 mmol/L.
Production of insulin is expressed as μU/islet/h. All experiments were performed with five replicates per point. The integrity of the islet response was assessed by comparing the responses after stimulation of different aliquots of islets by two and ten mmol/L glucose, respectively, and the strength of the inhibitory response was judged against that induced by 1 μg/ml (650 nmol/L) somatostatin. Somatostatin is a 14 amino acid peptide which is a known, potent inhibitor of the insulin secretory response of islet B-cells to glucose. Arimura A. Biomed res1981; 2:233-257. […] Petterson M., Ahren B., Bottcher G., Sundler F., Endocrinology 1986; 119:865-869.
The results are shown in TABLE 5 below and all results are expressed as standard error of the mean (s.e.m.). The significance of differences between the means of groups is assessed by the t-test. The result of stimulation by 10 mmol/L glucose is compared with the results of stimulation at 2 mmol/L glucose. In all other experimental conditions, the significance of the inhibitory effect is measured against the effect of 10 mmol/L glucose alone.

Test [5] in a line: Intravenous amylin bolus in normal rats. Format: in vivo, rat. How it is done: We have also shown that amylin acutely produces diabetes (fasting hyperglycemia greater than 140 mg/dL) when administered intravenously. Eight normal rats were injected with a 100 μg bolus of amylin (rat amylin, Bachem, Torrance, Calif.). An intravenous amylin bolus produced a profound hyperglycemia to diabetic levels within 15-30 minutes (usually around 200 mg/dL). This hyperglycemia persists for several hours. […] There is an increase in respiratory quotient (RQ) after amylin only when somatostatin is absent and insulin is allowed to increase in response to hyperglycemia. During somatostatin infusion (no endogenous insulin release), there is no change in RQ, indicating no change from lipid to carbohydrate fuel usage in response to amylin in the fasted animal.

[6] abbreviates: 100 μg intravenous bolus, normal rats.

No end group written: not given here.

As for “insulin: Humulin-R, 100U/mL, recombinant human insulin (Eli Lilly)”, the “Increase in rate of glycogen synthesis” value in test [1] (zero amylin, zero antagonist) is on record as 3.7 fold.
In the case of “CGRP8-37: 8-37 human CGRP (Bachem), amylin antagonist”, in test [1] (20 nM amylin), the “Effect on amylin inhibition of insulin-stimulated muscle glycogen synthesis (in words)” value is on record as “partly reverses”. The “Increment in the rate of glycogen synthesis, maximum reached” value in test [1] (20 nM amylin, antagonist 1 nM-10 μM) was “about 115 % of basal”. Also, the EC50 in test [1] (20 nM amylin, read-out: EC50 for disinhibition (half maximal concentration)) was 1.2 nM.
Take `CCCCNC(=O)NS(=O)(=O)c1ccc(C)cc1` [tolbutamide]: the “Effect on basal and glucose-stimulated secretion of insulin (in words)” value in test [2] (100 μM, 0 and 10 mM glucose, 60 min) is reported as “significantly enhanced”. Besides, in test [3], the “Effect on basal and glucose-stimulated amylin secretion (in words)” value is recorded as “significantly increase”.
Take `COc1ccc(Cl)cc1C(=O)NCCc1ccc(S(=O)(=O)NC(=O)NC2CCCCC2)cc1` [glibenclamide]: the “Proportional increase of basal insulin release” value in test [2] (0 glucose) is given as “more than two-fold”. The “Effect on basal and glucose-stimulated secretion of insulin (in words)” value in test [2] (0.1 and 1.0 μM, 0 and 10 mM glucose, 60 min) is recorded as “significantly enhanced”. Moreover, the “Proportional increase in basal amylin secretion” value in test [3] (basal conditions (0 glucose)) is “approximately two-fold”. The “Effect on basal and glucose-stimulated amylin secretion (in words)” value in test [3] is on record as “significantly increase”.
“CGRP 27-37: subpeptide 27-37 of calcitonin gene related peptide (FVPTNVGSKAF; ends and bridges not checked; UniProt P06881 109-119, looked up, fragment)”: the results for the Insulin production in test [4] (substance 10 nmol/L), in test [4] (substance 100 nmol/L) and in test [4] (substance 1000 nmol/L) were 36 μU/islet/hr, 36 μU/islet/hr and 46 μU/islet/hr, respectively. In addition, the entries for the “Relative insulin secretion inhibition (percentage by which insulin production is reduced from control)” value in test [4] (substance 10 nmol/L), in test [4] (substance 100 nmol/L) and in test [4] (substance 1000 nmol/L) were 55%, 55% and 42%, respectively.
For `CN(C)C(=N)N=C(N)N` [metformin], the “Effect on insulin secretion (in words)” value in test [2] (10 and 100 μM, 0 and 10 mM glucose, 60 min) is listed as “no measurable effect”. Besides, the “Effect on rates of amylin secretion (in words)” value in test [3] (islet β-cells (HIT), concentration range examined) is reported as “does not influence”.
For the compound “rat amylin: rat amylin, Bachem, Torrance, Calif. (KCNTATCATQRLANFLVRSSNNLGPVLPPTNVGSNTY; ends and bridges not checked; cysteine pairing not given here; UniProt P12969 38-74, looked up)”, in test [5] (setting [6]), the Duration of hyperglycemia entry is “several hours”, the “Hepatic (endogenous) glucose output” value is listed as “increase”, the “Hyperglycemia level after bolus” value is “around 200 mg/dL” and the Peripheral glucose disposal result is “increased impediment”. Moreover, in test [5] (setting [6]), the Plasma lactate entry is given as “transient increase” and the “Time to hyperglycemia at diabetic levels” value lay within 15 to 30 min. Besides, the “Respiratory quotient (RQ)” value in test [5] (during somatostatin infusion (no endogenous insulin release)) is “no change”. For the same compound, the “Respiratory quotient (RQ)” value in test [5] (somatostatin absent, insulin allowed to increase) is “increase”. For the same compound, the “Decrease of insulin-stimulated rate of glycogen synthesis” value in test [1] (20 nM amylin) is “approximately 83%”.
